The text below walks through data of patent US11439642B2 (Adverio Pharma GmbH, priority 2010, dated 2022).

One assay relates to rabbit aorta rings. In words: Vasorelaxant effect in vitro (phenylephrine-contracted aorta rings). The settings on record: Oryctolagus cuniculus, phenylephrine contraction, read-out: IC50 (concentration reducing height of phenylephrine contraction by 50%). How it is done: Rabbits are stunned by a blow to the neck and exsanguinated. The aorta is removed, freed from adhering tissue and divided into rings of a width of 1.5 mm. The rings are placed individually under an initial tension in 5 ml organ baths with Krebs-Henseleit solution which is at 37° C., is gassed with carbogen and has the following composition (in each case mM): sodium chloride 119; potassium chloride: 4.8; calcium chloride dihydrate: 1; magnesium sulphate heptahydrate: 1.4; potassium dihydrogenphosphate: 1.2; sodium bicarbonate: 25; glucose: 10. The force of contraction is detected with Statham UC2 cells, amplified and digitized via A/D converters (DAS-1802 HC, Keithley Instruments, Munich) and recorded in parallel on chart recorders. To produce a contraction, phenylephrine is added to the bath cumulatively in increasing concentration. After several control cycles, the substance to be investigated is added in each further run in increasing dosage in each case, and the height of the contraction achieved is compared with the height of the contraction reached in the last preceding run. The concentration necessary to reduce the height of the control value by 50% is calculated from this (IC50 value). The standard administration volume is 5 μl and the proportion of DMSO in the bath solution corresponds to 0.1%.

Assay [1] addresses T1, recombinant guanylate cyclase reporter cell line (Rattus norvegicus, UniProt P19686+P20595).
T1 construct: expressed in transfected cells
T1 sequence (P20595 1-619): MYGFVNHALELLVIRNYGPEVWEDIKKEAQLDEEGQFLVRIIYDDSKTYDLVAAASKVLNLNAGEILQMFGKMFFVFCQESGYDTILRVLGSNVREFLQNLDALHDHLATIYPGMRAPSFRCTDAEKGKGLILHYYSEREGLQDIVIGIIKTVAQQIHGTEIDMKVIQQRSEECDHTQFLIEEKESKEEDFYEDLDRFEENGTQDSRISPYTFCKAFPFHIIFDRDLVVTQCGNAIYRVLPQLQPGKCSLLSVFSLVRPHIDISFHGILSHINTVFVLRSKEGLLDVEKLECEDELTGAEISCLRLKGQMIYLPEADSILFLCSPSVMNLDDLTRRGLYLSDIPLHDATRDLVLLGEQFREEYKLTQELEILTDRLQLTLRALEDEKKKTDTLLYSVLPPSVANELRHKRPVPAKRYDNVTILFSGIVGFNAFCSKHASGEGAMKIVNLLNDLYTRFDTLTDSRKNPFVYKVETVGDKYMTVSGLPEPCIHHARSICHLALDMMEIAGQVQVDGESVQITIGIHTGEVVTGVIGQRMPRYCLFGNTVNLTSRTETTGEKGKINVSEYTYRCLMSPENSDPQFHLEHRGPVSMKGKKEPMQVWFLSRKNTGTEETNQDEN
T1 sequence (P19686 1-690): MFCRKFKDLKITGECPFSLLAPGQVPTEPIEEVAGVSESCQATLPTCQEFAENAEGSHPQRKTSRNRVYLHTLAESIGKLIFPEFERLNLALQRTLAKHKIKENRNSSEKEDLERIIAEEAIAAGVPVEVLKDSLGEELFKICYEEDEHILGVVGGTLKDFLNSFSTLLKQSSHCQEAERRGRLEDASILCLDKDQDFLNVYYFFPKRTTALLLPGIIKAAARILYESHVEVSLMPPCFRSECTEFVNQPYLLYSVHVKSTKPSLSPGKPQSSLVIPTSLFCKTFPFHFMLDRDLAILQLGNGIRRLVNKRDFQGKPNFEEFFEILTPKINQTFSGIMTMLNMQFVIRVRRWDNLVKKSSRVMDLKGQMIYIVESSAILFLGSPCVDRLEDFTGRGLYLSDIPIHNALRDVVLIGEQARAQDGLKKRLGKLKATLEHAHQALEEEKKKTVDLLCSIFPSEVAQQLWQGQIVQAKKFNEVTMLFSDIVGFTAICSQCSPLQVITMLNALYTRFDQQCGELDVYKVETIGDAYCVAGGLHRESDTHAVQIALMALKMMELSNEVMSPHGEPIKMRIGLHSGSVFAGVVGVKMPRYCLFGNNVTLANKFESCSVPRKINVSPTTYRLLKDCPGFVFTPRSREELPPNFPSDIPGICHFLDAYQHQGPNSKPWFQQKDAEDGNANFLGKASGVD
Put plainly: Effect on a recombinant guanylate cyclase reporter cell line. The assay is classed as cell-based. As for the experimental part:
The cellular activity of the compounds according to the invention is determined using a recombinant guanylate cyclase reporter cell line, as described in F. Wunder et al., Anal. Biochem. 339, 104-112 (2005).

On to `COC(=O)Nc1c(N)nc(-c2nn(Cc3ccccc3F)c3ncc(F)cc23)nc1N` [Example 1, Methyl {4,6-diamino-2-[5-fluoro-1-(2-fluorobenzyl)-1H-pyrazolo[3,4-b]pyridin-3-yl]pyrimidin-5-yl}carbamate], for which the IC50 in the assay on rabbit aorta rings was 958 nM. In addition, the “MEC (minimum effective concentration)” value in assay [1] amounted to 0.3 µM.

Take `COC(=O)N(C)c1c(N)nc(-c2nn(Cc3ccccc3F)c3ncc(F)cc23)nc1N` [Example 2]: the IC50 with rabbit aorta rings amounted to 251 nM. Moreover, the “MEC (minimum effective concentration)” value in assay [1] was found to be 0.1 µM.

Take `COC(=O)N(CC(F)(F)F)c1c(N)nc(-c2nn(Cc3ccccc3F)c3ncc(F)cc23)nc1N` [Example 3, Methyl {4,6-diamino-2-[5-fluoro-1-(2-fluorobenzyl)-1H-pyrazolo[3,4-b]pyridin-3-yl]pyrimidin-5-yl}(2,2,2-trifluoroethyl)carbamate]: the IC50 in the assay on rabbit aorta rings turned out to be 515 nM. For the same compound, the “MEC (minimum effective concentration)” value in assay [1] was found to be 0.03 µM.
